From patent publication US11458126B2, “DHODH inhibitor for use in treating hematologic cancers” (PTC THERAPEUTICS, INC., priority 2017, dated 2022)

Experiments:
[1] = tested on: de novo pyrimidine nucleotide synthesis in HT1080 cells; assay: 15N-glutamine tracing study: pyrimidine nucleotide synthesis metabolites by LC-MS/MS; format: cell-based, human
Procedure: HT1080 cells in log phase growth were seeded in 10 cm dishes (4×10^6 cells/dish) and cultured in regular DMEM supplemented with 10% fetal bovine serum (FBS), penicillin (50 IU/mL), and streptomycin (50 μg/mL). After overnight incubation, the culture medium was replenished with glutamine free DMEM containing 1 g/L glucose, 10% fetal bovine serum (FBS), penicillin (50 IU/mL), streptomycin (50 μg/mL) and 1 mM ^15N-glutamine (Sigma, Cat #: 490024). After culturing for the indicated time in the presence of compounds or vehicle control (0.5% DMSO), the cells were washed once with cold PBS (5 mL) and harvested and lysed in cold distilled H2O (0.5 mL) with −80° C. methanol (1 mL) using a plastic cell scraper. The cell lysates were then centrifuged at 10,000×g for 15 minutes at 4° C., and supernatant collected for LC-MS/MS analysis of the ^15N-labelled de novo pyrimidine synthesis metabolites.
LC-MS/MS Detection of Metabolites. Quantification of ^15N-labelled de novo pyrimidine synthesis metabolites was carried out on an Accela pump and a PAL auto-sampler coupled to a TSQ Quantum Ultra mass spectrometer. The mass spectrometer was equipped with a heated electrospray ionization source operated in negative-ion mode (Thermo Fisher Scientific, Waltham, Mass.). The ion spray voltage was set at 2500 V, capillary temperature at 350° C., vaporizer temperature at 300° C.; sheath gas pressure at 50 units and auxiliary gas pressure at 5 units. A Thermo Fisher Scientific Hypercab column (3μ, 50×2.1 mm) was used and maintained at 50° C. for metabolite separation. Mobile phase A was 10 mM NH4HCO3 in water, pH 9.4, and mobile phase B was 10 mM NH4HCO3 in ACN-water (9:1). The flow rate was set at 0.50 mL/min.

MOLM-13 AML cells = assay: Leukemia cell proliferation, comparison of DHODH inhibitors; format: cell-based; conditions: Homo sapiens, MOLM-13, 96 h, proliferation (FIG. 4d)
[2] = tested on: MOLT-4 human ALL tumor cells; assay: MOLT-4 human acute lymphoblastic leukemia lethality model; format: in vivo; conditions: NOD/SCID mice, 10 mg/kg qd
Procedure: Doxorubicin was tested at the highest dose tolerated by NOD/SCID mice.
Systemic Leukemia Lethality Model: Male NOD-SCID mice were inoculated with MOLT-4 human ALL tumor cells (1×10^7 cells in 200 μL PBS) by intravenous (IV) injection. […] The mice were dosed and observed until moribund, at which time they were euthanized. At 2- and 4-weeks post-inoculation, whole blood was obtained from 5 mice per group by retro-orbital bleeding, stained with an antibody against human CD45, and the number of CD45-positive cells was determined by FACs. Data in FIG. 5b represents % of human CD45+ from blood of each mouse; where * indicates p<0.05, one way ANOVA, with multiple comparisons vs vehicle.

prohibitin = assay: Pull-down with Cpd 1-linked Sepharose beads, Western blot (control protein); format: binding, human; conditions: Western blot (FIG. 2a)
Procedure: Western Blot Analysis. Cells were treated with test compounds for 24 to 48 hours as indicated in the Results section. Subsequently, the conditioned medium was harvested by mixing with equal volume of 2×SDS-PAGE sample buffer (Bio-Rad). Whole-cell extracts were obtained by lysing cells either directly in 1×SDS-PAGE sample buffer (Bio-Rad) or in M-PER lysis buffer containing 150 mmol/L NaCl, 2 mmol/L EDTA and 1× Halt protease inhibitors (Pierce, Rockford, Ill.). Proteins in the samples were resolved on a Tris-glycine Criterion gel (Bio-Rad) and transferred onto a 0.45 μm nitrocellulose membrane. The membranes were then immunoblotted with specific antibodies indicated in the Results section. Antibody (C1) specific for VEGFA was purchased from Santa Cruz Biotechnologies, CA (1:200 dilution); Antibody specific for human β-actin was purchased from Abcam (1:10000 dilution); Antibody specific for V5-tag was purchased from Invitrogen (1:5000 dilution). Antibody specific for DHODH was purchased from Proteintech (Cat #: 14877-1-AP, 1:500 dilution); and antibody specific for human prohibitin was purchased from Thermo Scientific (Cat #: PA5-12274 and PA5-14133, 1:1000 dilution). […] The expression levels of proteins were detected with Odyssey (LI-COR) or using enhanced chemiluminescence (Pierce, Rockford, Ill.). […]

DHODH = DHODH (Homo sapiens, UniProt Q02127); assay: Purified rhDHODH enzymatic assay; format: biochemical; set-up: full length purified recombinant human DHODH or mitochondria isolated from K562 cells were used as enzyme sources; conditions: compared with activity in hematologic cancer cells and other DHODH inhibitors
Sequence of DHODH (Q02127 whole entry, canonical isoform): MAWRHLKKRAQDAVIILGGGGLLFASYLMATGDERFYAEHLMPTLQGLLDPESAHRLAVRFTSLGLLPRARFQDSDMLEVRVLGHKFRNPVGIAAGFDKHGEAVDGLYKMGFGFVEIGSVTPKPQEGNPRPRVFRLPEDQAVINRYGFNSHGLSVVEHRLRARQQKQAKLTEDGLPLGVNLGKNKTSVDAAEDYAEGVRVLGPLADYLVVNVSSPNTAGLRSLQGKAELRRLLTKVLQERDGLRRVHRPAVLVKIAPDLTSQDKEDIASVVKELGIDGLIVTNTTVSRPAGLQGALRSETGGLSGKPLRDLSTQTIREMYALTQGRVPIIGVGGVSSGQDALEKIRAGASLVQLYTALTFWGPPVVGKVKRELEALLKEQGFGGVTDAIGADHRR
Description: Low pyrimidine pool levels may affect certain translation factor(s) or mechanisms required for the non-canonical protein synthesis of stress-regulated mRNAs. […] EIF1A is an isoform that controls translation start codon recognition. Low uridine levels may also affect the mRNA substrate directly: depletion of pyrimidine nucleotides in cancer cells can cause a starvation-like stress response leading to changes in methylation and pseudouridylation of mRNA modifications.
In Vitro DHODH Activity Assays. The chromogen reduction assay was carried out as previously reported. DHODH activity was determined in the presence of compounds or vehicle control using the standard colorimetric DHODH continuous assay in which the oxidation of dihydroorotic acid (DHO) and subsequent reduction of ubiquinone is coupled with and measured by monitoring the reduction of 2,6-dichlorophenolindophenol (DCPIP). Briefly, full length purified recombinant human DHODH or mitochondria isolated from K562 cells were used as enzyme sources to test compound inhibition of DHODH activity. […] The DCIP reduction was monitored by measuring the absorbance at OD610 nm on a BioTek Power Wave XS2 and the enzyme reaction velocity was derived for each reaction using the GENS software.

[3] = cells treated 100 nm for 8 hours in presence of 15N-glutamine, BLDL = Below Detection Limits

COc1ccc([C@H]2c3[nH]c4ccc(Cl)cc4c3CCN2C(=O)Oc2ccc(Cl)cc2)cc1 [Cpd 1, 4-chlorophenyl (S)-6-chloro-1-(4-methoxyphenyl)-1,3,4,9-tetrahydro-2H-pyrido[3,4-b]indole-2-carboxylate]
de novo pyrimidine synthesis (15N-labelled CTP, UTP and UMP) ([1]; HT1080 cells, LCMS (FIG. 1b)): inhibits de novo pyrimidine synthesis | ^15N-Orotate ([1]; cells treated 100 nm for 8 hours in presence of 15N-glutamine): 44.8 ± 6.1 µM | ^15N-DHO [1, 3]: 18.1 ± 5.5 µM | ^15N-UMP [1, 3]: BLDL | pyrazofurin-MP-induced increase of 15N-orotate ([1]; co-treatment with pyrazofurin-MP, HT1080 cells (FIG. 1c)): blocked | IC50 (MOLM-13 AML cells): ~1 nM | number of circulating MOLT-4 cells (CD45+) ([2]; compared to doxorubicin (FIG. 5b)): significantly reduced | median survival time (MST) ([2]; vehicle 46 days, p<0.05): 136 days | binding of prohibitin to Cpd 1-linked beads after preincubation with free compound (prohibitin): not blocked | inhibition of DHODH functional activity in purified rhDHODH enzymatic assays (DHODH): less inhibition of DHODH functional activity
